The conditions of data set [1]: Crystal; DTA.
The nature of data set [2]: Molar enthalpy of transition or fusion. Conditions: Crystal; DSC.

± gives the expanded uncertainty stated by the source.

The text below walks through data of the NIST ThermoML archive (doi:10.1016/j.jct.2017.09.006).

For the molecule `COC(=O)c1cccc(C(=O)OC)c1` [dimethyl 1,3-benzenedicarboxylate], in data set [1], the Normal melting temperature was found to be 67.2 ± 0.5 °C. Also, the “Molar enthalpy of transition or fusion” value in data set [2] came to 6.67 ± 0.167 kcal/mol.
As for `Cc1ccc2ccc(C)cc2c1` [2,7-dimethylnaphthalene], in data set [1], the Normal melting temperature is 95.0 ± 0.5 °C. Moreover, in data set [2], the “Molar enthalpy of transition or fusion” value turned out to be 6.05 ± 0.263 kcal/mol.
